Measured values taken from PubChem BioAssay AID2060893 (Molecular Pharmacology Branch, DTP, NCI, 2025).
Values belong to the compound of their own block, whether it stands above or below them.

Test system: K86415-001-R-J1-PDC complex spheroids, viability
Assay: Anticancer human tumor K86415-001-R-J1-PDC patient-derived lung adenocarcinoma cell line growth inhibition [RAS]
Conditions: for IC50: curve of first compound; for viability, T/C: stronger effect = lower value
Excerpt: RAS pathway inhibitors in Combinations in Complex Spheroids
A high-throughput screen of multi-cell type tumor spheroids was designed to identify active combinations of RAS pathway inhibitors and targeted small molecules. Complex spheroids include a stromal component modeled by human endothelial cells (HUVEC) and fibroblasts modeled by human mesenchymal stem cells (MSCs). The concentration ranges selected for each drug and investigational agent were based upon clinically achievable concentrations if the clinical Cmax of the agent was known.
Compounds. The drugs and investigational agents: abemaciclib (NSC768073), cobimetinib (NSC768068), divarasib (GDC6063, NSC841802), docetaxel (NSC628503), GDC-1971 (RLY-1971, NSC841576), gemcitabine (NSC613327), inavolisib (NSC800729), ipatasertib (NSC767898), KB-0742 (NSC834161), MRTX-1133 (NSC836407), osimertinib (NSC779217), RMC-4630 (NSC839698), RMC-6236 (NSC851965), RMC-6291 (NSC852671), Ro-3306 (NSC812927), sapanisertib (NSC764658), SN-38 (NSC673596), staurosporine (NSC755774), SY5609 (NSC837396), and tovorafenib (DAY101, NSC766906), were obtained from the National Cancer Institute (NCI) Developmental Therapeutics Program Chemical Repository. The FDA-approved anticancer drug set is available from the NCI Developmental Therapeutics Program. […] The stock solutions were prepared in dimethyl sulfoxide (DMSO, Sigma-Aldrich, St. Louis, MO, cat. D2650) at 800-fold the tested concentration and stored at -70 degrees C prior to their use. All drugs and investigational agents were tested over a range starting from a high concentration at or near the clinical Cmax and decreasing in half-log increments. If the clinical Cmax for an agent had not been determined, the highest concentration tested was 10 microM.
Cell Culture. All cells were maintained in an incubator at 37 degrees C and 5% CO2 with 95% humidity. The PDC lines were cultured according to standard operating procedures established by the NCI PDMR. All PDCs were thawed and cultured in Matrigel-coated flasks prepared with a working solution of 1X Ham's F-12 nutrient mix, without supplementation (Invitrogen, Waltham, MA, cat. 11765054), 100 U/mL penicillin-streptomycin (Invitrogen, cat. 15140122), and 2.5% Matrigel (Corning Inc., Corning, NY, cat. 354248) for the first three passages. The 362531-283-R-J2-PDC and 782815-120-R-J1-PDC lines were cultured in 6C/Colon 1B media, which includes advanced DMEM/F-12 (Thermo Fisher Scientific, cat. 12634028), 10 mM HEPES (Thermo Fisher Scientific, cat. 15630080), 1X GlutaMAX supplement (Thermo Fisher Scientific, cat. 35050061), 0.1 mg/mL primocin (InvivoGen, San Diego, CA, cat. ant-pm-2), 10% defined fetal bovine serum, heat inactivated (HyClone Laboratories Inc., Logan, UT, cat. SH30070.03HI), 50% L-WRN conditioned media (ATCC, cat. CRL-3276), 1.25 mM N-Acetyl-L-cysteine (Sigma-Aldrich, cat. A9165), 10 mM nicotinamide (Sigma-Aldrich, cat. N0636), 1X B-27 supplement (Thermo Fisher Scientific, cat. 17504044), 1X N-2 supplement (Thermo Fisher Scientific, cat. 17502048), 50 ng/mL human EGF (Thermo Fisher Scientific, cat. PHG0311), and 10 microM Y-27632 dihydrochloride (Tocris Bioscience, cat. 1254). The K12877-001-R-J1-PDC line was cultured in 6I media, which includes all 6C/Colon 1B media plus 10 ng/mL human FGF-10 (PeproTech, cat. 100-26), 1 ng/mL human FGF-2 (PeproTech, cat. 100-18B), 1 µM prostaglandin E2 (Tocris Bioscience, cat. 2296), […] hydrocortisone (Sigma-Aldrich, cat. H4001), and […] bovine insulin (Sigma-Aldrich, cat. I6634). The K86415-001-R-J1-PDC line was cultured in 6D media, which includes all 6C/Colon 1B media components minus the L-WRN conditioned media. The 485176-168-R4-J1-PDC was cultured in PANC media, which includes all 6C/Colon 1B media plus 100 ng/mL human FGF-10 (PeproTech, cat. 100-26), 500 nM SB-431542 (Selleckchem, cat. S1067), and 10 nM gastrin (Tocris Bioscience, cat. 3006). […]

[1] = second compound 0.0316 µM, first compound 0.0316 µM
[2] = second compound 0.0316 µM, first compound 0.1 µM
[3] = second compound 0.0316 µM, first compound 0.316 µM
[4] = second compound 0.0316 µM, first compound 1 µM
[5] = second compound 0.0316 µM, first compound 3.16 µM
[6] = second compound 0.0316 µM, first compound 10 µM
[7] = second compound 0.1 µM, first compound 0.0316 µM
[8] = second compound 0.1 µM, first compound 0.1 µM
[9] = second compound 0.1 µM, first compound 0.316 µM
[10] = second compound 0.1 µM, first compound 1 µM
[11] = second compound 0.1 µM, first compound 3.16 µM
[12] = second compound 0.1 µM, first compound 10 µM
[13] = second compound 0.316 µM, first compound 0.0316 µM
[14] = second compound 0.316 µM, first compound 0.1 µM
[15] = second compound 0.316 µM, first compound 0.316 µM
[16] = second compound 0.316 µM, first compound 1 µM
[17] = second compound 0.316 µM, first compound 3.16 µM
[18] = second compound 0.316 µM, first compound 10 µM
[19] = second compound 1 µM, first compound 0.0316 µM
[20] = second compound 1 µM, first compound 0.1 µM
[21] = second compound 1 µM, first compound 0.316 µM
[22] = second compound 1 µM, first compound 1 µM
[23] = second compound 1 µM, first compound 3.16 µM
[24] = second compound 1 µM, first compound 10 µM
[25] = second compound 3.16 µM, first compound 0.0316 µM
[26] = second compound 3.16 µM, first compound 0.1 µM
[27] = second compound 3.16 µM, first compound 0.316 µM
[28] = second compound 3.16 µM, first compound 1 µM
[29] = second compound 3.16 µM, first compound 3.16 µM
[30] = second compound 3.16 µM, first compound 10 µM
[31] = second compound 10 µM, first compound 0.0316 µM
[32] = second compound 10 µM, first compound 0.1 µM
[33] = second compound 10 µM, first compound 0.316 µM
[34] = second compound 10 µM, first compound 1 µM
[35] = second compound 10 µM, first compound 3.16 µM
[36] = second compound 10 µM, first compound 10 µM
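Also: spheroids exposed to agents for seven days before readout.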

IC50 (second compound 0.0316 µM): 4.56 µM
IC50 (second compound 0.1 µM): 4.58 µM
IC50 (second compound 0.316 µM): 4.3 µM
IC50 (second compound 1 µM): 4.02 µM
IC50 (second compound 3.16 µM): < 0.0316 µM
IC50 (second compound 10 µM): < 0.0316 µM
SMILES: CC1(O)CCCC1n1c(=O)c(C(F)F)cc2cnc(NC3CCN(S(C)(=O)=O)CC3)nc21 (stereo unspecified) + C#Cc1c(F)ccc2cc(O)cc(-c3ncc4c(N5CC6CCC(C5)N6)nc(OCC56CCCN5CC(F)C6)nc4c3F)c12
viability, T/C [1]: 86.2%
viability, T/C [2]: 71.4%
viability, T/C [3]: 59%
viability, T/C [4]: 79.4%
viability, T/C [5]: 70%
viability, T/C [6]: 7.15%
viability, T/C [7]: 78.2%
viability, T/C [8]: 68.4%
viability, T/C [9]: 57.9%
viability, T/C [10]: 64.6%
viability, T/C [11]: 80.6%
viability, T/C [12]: 8.13%
viability, T/C [13]: 74.2%
viability, T/C [14]: 63.3%
viability, T/C [15]: 55%
viability, T/C [16]: 67.9%
viability, T/C [17]: 67.1%
viability, T/C [18]: 8.09%
viability, T/C [19]: 65.3%
viability, T/C [20]: 62.4%
viability, T/C [21]: 53.6%
viability, T/C [22]: 54.5%
viability, T/C [23]: 70.7%
viability, T/C [24]: 6.85%
viability, T/C [25]: 28.2%
viability, T/C [26]: 28.9%
viability, T/C [27]: 29%
viability, T/C [28]: 43.6%
viability, T/C [29]: 59.4%
viability, T/C [30]: 5.28%
viability, T/C [31]: 15.6%
viability, T/C [32]: 16.1%
viability, T/C [33]: 21.9%
viability, T/C [34]: 25.9%
viability, T/C [35]: 30.2%
viability, T/C [36]: 2.97%

IC50 (second compound 0.0316 µM): > 1 µM
IC50 (second compound 0.1 µM): > 1 µM
IC50 (second compound 0.316 µM): > 1 µM
IC50 (second compound 1 µM): 0.0271 µM
IC50 (second compound 3.16 µM): < 0.00316 µM
IC50 (second compound 10 µM): < 0.00316 µM
SMILES: CCN1CCN(Cc2ccc(Nc3ncc(F)c(-c4cc(F)c5nc(C)n(C(C)C)c5c4)n3)nc2)CC1 + C#Cc1c(F)ccc2cc(O)cc(-c3ncc4c(N5CC6CCC(C5)N6)nc(OCC56CCCN5CC(F)C6)nc4c3F)c12
viability, T/C (second compound 0.0316 µM, first compound 0.00316 µM): 93.1%
viability, T/C (second compound 0.0316 µM, first compound 0.01 µM): 89%
viability, T/C [1]: 77.4%
viability, T/C [2]: 67.5%
viability, T/C [3]: 66.3%
viability, T/C [4]: 67.4%
viability, T/C (second compound 0.1 µM, first compound 0.00316 µM): 90.9%
viability, T/C (second compound 0.1 µM, first compound 0.01 µM): 80.5%
viability, T/C [7]: 72.3%
viability, T/C [8]: 61.7%
viability, T/C [9]: 57.4%
viability, T/C [10]: 70.7%
viability, T/C (second compound 0.316 µM, first compound 0.00316 µM): 92%
viability, T/C (second compound 0.316 µM, first compound 0.01 µM): 79.3%
viability, T/C [13]: 67.1%
viability, T/C [14]: 55.8%
viability, T/C [15]: 50.3%
viability, T/C [16]: 61%
viability, T/C (second compound 1 µM, first compound 0.00316 µM): 62%
viability, T/C (second compound 1 µM, first compound 0.01 µM): 54.7%
viability, T/C [19]: 49%
viability, T/C [20]: 44.5%
viability, T/C [21]: 45.2%
viability, T/C [22]: 53.5%
viability, T/C (second compound 3.16 µM, first compound 0.00316 µM): 39.5%
viability, T/C (second compound 3.16 µM, first compound 0.01 µM): 34.9%
viability, T/C [25]: 28.4%
viability, T/C [26]: 26.1%
viability, T/C [27]: 30.9%
viability, T/C [28]: 38.9%
viability, T/C (second compound 10 µM, first compound 0.00316 µM): 14.3%
viability, T/C (second compound 10 µM, first compound 0.01 µM): 15.6%
viability, T/C [31]: 14.1%
viability, T/C [32]: 19%
viability, T/C [33]: 22.1%
viability, T/C [34]: 22.2%

IC50 (second compound 0.0316 µM): > 10 µM
IC50 (second compound 0.1 µM): > 10 µM
IC50 (second compound 0.316 µM): > 10 µM
IC50 (second compound 1 µM): 7.33 µM
IC50 (second compound 3.16 µM): 0.183 µM
IC50 (second compound 10 µM): < 0.0316 µM
SMILES: C[C@@H](NC(=O)c1ncnc(N)c1Cl)c1ncc(C(=O)Nc2cc(C(F)(F)F)c(Cl)cn2)s1 + C#Cc1c(F)ccc2cc(O)cc(-c3ncc4c(N5CC6CCC(C5)N6)nc(OCC56CCCN5CC(F)C6)nc4c3F)c12
viability, T/C [1]: 107%
viability, T/C [2]: 115%
viability, T/C [3]: 104%
viability, T/C [4]: 81.1%
viability, T/C [5]: 61.1%
viability, T/C [6]: 56.5%
viability, T/C [7]: 113%
viability, T/C [8]: 112%
viability, T/C [9]: 93%
viability, T/C [10]: 79.9%
viability, T/C [11]: 67.5%
viability, T/C [12]: 56.8%
viability, T/C [13]: 119%
viability, T/C [14]: 108%
viability, T/C [15]: 88.8%
viability, T/C [16]: 79.8%
viability, T/C [17]: 65.5%
viability, T/C [18]: 53.6%
viability, T/C [19]: 83.9%
viability, T/C [20]: 85.9%
viability, T/C [21]: 69.1%
viability, T/C [22]: 69%
viability, T/C [23]: 59.7%
viability, T/C [24]: 46.3%
viability, T/C [25]: 46.9%
viability, T/C [26]: 53.5%
viability, T/C [27]: 52.3%
viability, T/C [28]: 42.6%
viability, T/C [29]: 38.4%
viability, T/C [30]: 30.2%
viability, T/C [31]: 19.5%
viability, T/C [32]: 26%
viability, T/C [33]: 23.1%
viability, T/C [34]: 18.2%
viability, T/C [35]: 19.6%
viability, T/C [36]: 15.3%
